These results are taken from ChEMBL document CHEMBL5233211, “Progress in PD-1/PD-L1 pathway inhibitors: From biomacromolecules to small molecules” (Eur J Med Chem, 2020).

The target of experiment [1] is T1, Programmed cell death protein 1/Programmed cell death 1 ligand 1 (Homo sapiens, UniProt Q15116+Q9NZQ7). Kind of experiment: Inhibition of human PD-1/PD-L1 interaction. The experiment is classed as protein-complex assay.
A short description of experiment [2]: Binding affinity to human PD-1.
Experiment [3] concerns the target T1, Programmed cell death protein 1/Programmed cell death 1 ligand 1. Kind of experiment: Inhibition of recombinant human PD-1/PD-L1 interaction relative to control. The experiment is classed as protein-complex assay. Particulars: concentration not given here.
The target is the same in experiment [4]. Kind of experiment: Inhibition of PD-1/PD-L1 interaction in human MDA-MB-231 cells assessed as increase in mouse splenocytes proliferation. Also on record: concentration or dose not given beside the values. Format: cell-based.
Experiment [5] addresses Programmed cell death 1 ligand 1 (Mus musculus, UniProt Q9EP73). Kind of experiment: Inhibition of PD-L1 in mouse splenocytes assessed as increase in INFgamma release. Format: cell-based, Splenocyte.
Experiment [6] concerns the target Programmed cell death 1 ligand 1 (Homo sapiens, UniProt Q9NZQ7). Kind of experiment: Inhibition of PD-L1 in human PBMCs assessed as increase in INFgamma production. The experiment is classed as cell-based, PBMC.
The target of experiment [7] is T2, Programmed cell death 1 ligand 2 (Homo sapiens, UniProt Q9BQ51).
T2 sequence (Q9BQ51 whole entry): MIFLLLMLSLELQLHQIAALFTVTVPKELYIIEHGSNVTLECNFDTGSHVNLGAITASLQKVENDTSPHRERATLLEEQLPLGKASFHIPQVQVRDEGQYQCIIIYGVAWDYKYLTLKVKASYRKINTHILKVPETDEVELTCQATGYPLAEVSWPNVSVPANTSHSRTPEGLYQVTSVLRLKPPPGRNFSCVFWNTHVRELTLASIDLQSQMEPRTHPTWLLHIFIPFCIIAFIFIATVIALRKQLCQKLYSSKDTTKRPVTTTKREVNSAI
Kind of experiment: Inhibition of PD-L2 in human PBMCs assessed as increase in INFgamma production. Format: cell-based, PBMC.

A short description of experiment [8]: Inhibition of VISTA/PD-1 interaction in human PBMCs assessed as increase in INFgamma production. Format: cell-based. As to conditions: PBMC.
Experiment [9] has as its target T3, Programmed cell death 1 ligand 2 (Mus musculus, UniProt Q9WUL5).
T3 sequence (Q9WUL5 whole entry): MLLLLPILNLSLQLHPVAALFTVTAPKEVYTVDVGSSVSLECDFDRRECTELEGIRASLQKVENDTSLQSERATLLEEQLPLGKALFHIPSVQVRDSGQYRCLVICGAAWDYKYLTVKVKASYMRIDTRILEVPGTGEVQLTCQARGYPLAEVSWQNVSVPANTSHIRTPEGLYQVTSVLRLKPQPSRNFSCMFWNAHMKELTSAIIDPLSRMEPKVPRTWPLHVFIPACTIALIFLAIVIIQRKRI
Kind of experiment: Inhibition of PD-L2 in mouse splenocytes assessed as increase in INFgamma production. The experiment is classed as cell-based, Splenocyte.

A short description of experiment [10]: Induction of mouse splenocytes proliferation at 100 nM. The experiment is classed as functional, Splenocyte.
The test system of the next experiment is CT26. Kind of experiment: Antitumor activity against mouse CT26 cells implanted in mouse at 3 mg/kg administered for 25 days. Format: functional. Particulars: time 25 day.

Numbered stars: 1 amine (or outer) side, 2 acyl side, 3 side chain; on linkers, the order of the positions; unused ones are H or OH. Bridge positions count the residues as written; N and C are the ends. Square brackets hold non-standard residues; d marks the D form. Peptide text beside a SMILES is read from it. ξ: configuration not given here. X1 = O=C(C(CO)NN[*:1])[*:2]; ξY = NC(Cc1ccc(O)cc1)C(=O)O; ξQ = NC(=O)CCC(N)C(=O)O; ξN = NC(=O)CC(N)C(=O)O

T1 sequence (Q15116 whole entry): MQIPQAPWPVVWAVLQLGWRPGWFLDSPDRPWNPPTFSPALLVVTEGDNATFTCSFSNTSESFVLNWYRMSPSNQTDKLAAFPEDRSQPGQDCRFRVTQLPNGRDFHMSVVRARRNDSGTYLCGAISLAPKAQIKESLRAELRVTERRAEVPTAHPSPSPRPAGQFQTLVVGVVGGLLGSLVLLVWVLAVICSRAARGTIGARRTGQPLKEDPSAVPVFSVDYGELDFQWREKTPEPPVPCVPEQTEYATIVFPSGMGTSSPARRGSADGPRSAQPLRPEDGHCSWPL
T1 sequence (Q9NZQ7 whole entry): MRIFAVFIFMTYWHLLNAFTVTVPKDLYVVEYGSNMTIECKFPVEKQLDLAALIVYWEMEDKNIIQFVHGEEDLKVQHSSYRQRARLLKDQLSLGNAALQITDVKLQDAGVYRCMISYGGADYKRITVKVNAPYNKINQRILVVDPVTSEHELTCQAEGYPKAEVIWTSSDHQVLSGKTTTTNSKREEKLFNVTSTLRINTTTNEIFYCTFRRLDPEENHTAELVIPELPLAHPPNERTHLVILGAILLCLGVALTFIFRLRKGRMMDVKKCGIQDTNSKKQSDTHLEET
Programmed cell death 1 ligand 1 (Mus musculus, UniProt Q9EP73), sequence (Q9EP73 whole entry): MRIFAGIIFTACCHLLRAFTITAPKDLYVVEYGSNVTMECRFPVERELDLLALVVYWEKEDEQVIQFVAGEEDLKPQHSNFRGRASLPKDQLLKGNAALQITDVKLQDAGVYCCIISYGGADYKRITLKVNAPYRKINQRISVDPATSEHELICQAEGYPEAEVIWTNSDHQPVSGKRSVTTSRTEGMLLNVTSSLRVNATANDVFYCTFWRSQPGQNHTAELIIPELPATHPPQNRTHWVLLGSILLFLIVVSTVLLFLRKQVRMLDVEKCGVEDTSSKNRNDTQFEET
Programmed cell death 1 ligand 1 (Homo sapiens, UniProt Q9NZQ7), sequence (Q9NZQ7 whole entry): as the sequence (Q9NZQ7 whole entry) above

In general, IC50 refers to the midpoint of a concentration-inhibition curve. `Cc1c(Nc2nccc3cc(CN4CC[C@@H](O)C4)cnc23)cccc1-c1cccc(-c2nc3cc(CN[C@H]4CC[C@@H](C(=O)O)C4)cc(C#N)c3o2)c1C` gave an IC50 in experiment [1] below 10 nM. One may read the Kd as a measure of binding affinity in units of concentration. In the case of H-GIDYEERWK-OH, the Kd in experiment [2] was 28300 nM. The same measure, in the same setting: in the case of H-FNWDYSWKSERLKEAYDL-OH it was 339000 nM. One may read the inhibition as the change of the read-out against control, counted positive when it falls. As to `Cc1nnc(NS(=O)(=O)c2ccc(N)cc2)s1`, the inhibition in experiment [3] came to 29.3%. On to `C[C@@H](O)[C@@H]1NC(=O)C(N[C@@H](CO)C(=O)O)CCCCNC(=O)CCC(C(=O)N[C@@H](CO)C(=O)N[C@@H](Cc2ccccc2)C(N)=O)NC(=O)[C@H](CO)NC1=O` (stereo partly specified), for which the Activity in experiment [4] came to 84%. In experiment [2], `N[C@@H](Cc1c[nH]c2ccccc12)C(=O)N[C@@H](CC(=O)O)C(=O)N[C@@H](Cc1ccc(O)cc1)C(=O)N[C@@H](CC(=O)O)C(=O)O` (H-WDYD-OH) displayed a Kd of 22400 nM.

In general, EC50 refers to the midpoint of the concentration-response curve. As to `CC(O)[C@H](NC(=O)N[C@@H](CC(N)=O)c1nnc([C@@H](N)CO)s1)C(=O)O` (stereo partly specified), the EC50 in [5] worked out at 33.8 nM; in experiment [6], 56.4 nM; in experiment [7], 149 nM; in experiment [8], 49.4 nM; in [9] it was 55 nM.

For `CC(O)[C@H](NC(=O)N[C@@H](CCC(N)=O)c1nnc([C@@H](N)C(C)O)o1)C(=O)O` (stereo partly specified), the Activity in experiment [10] came to 97%.

Take `Cc1c(-c2ccccc2)cccc1-c1nc2cc(CNCCO)ccc2o1`: the IC50 in experiment [1] is below 10 nM.

In experiment [2], `CC(C)C[C@H](NC(=O)[C@H](CCC(N)=O)NC(=O)[C@H](C)NC(=O)[C@H](CCCNC(=N)N)NC(=O)[C@H](CCC(N)=O)NC(=O)[C@H](CO)NC(=O)[C@H](CC(N)=O)NC(=O)[C@H](Cc1ccc(O)cc1)NC(=O)[C@H](CC(=O)O)NC(=O)[C@H](Cc1c[nH]c2ccccc12)NC(=O)C(CC(N)=O)NC(=O)CN)C(=O)N[C@@H](Cc1ccc(O)cc1)C(=O)N[C@@H](CC(N)=O)C(=O)N[C@@H](CCC(N)=O)C(=O)O` (stereo partly specified) (H-G[ξN]WDYNSQRAQLYNQ-OH) returned a Kd of 1380 nM. `Cc1c(-c2ccccc2)cccc1-c1nc2cc(CNCCO)c(OCCN3CCOCC3)cc2o1` showed an IC50 in [1] below 10 nM. On to H-LDYVNRRKMYQ-OH, for which the Kd in experiment [2] is 3320 nM. Regarding `C[C@@H](O)[C@@H]1NC(=O)C(N[C@@H](CO)C(=O)O)CCC(=O)NCCCCC(C(=O)N[C@@H](CO)C(=O)N[C@@H](Cc2ccccc2)C(N)=O)NC(=O)[C@H](CO)NC1=O` (stereo partly specified), the Activity in experiment [4] was 78%. In [2], H-LDYGDKREGQMAE-OH registered a Kd of 21600 nM. Turning to `C[C@H](O)[C@@H](N)C(=O)NNC(=O)[C@@H](CC(N)=O)NC(=O)N[C@H](CO)C(=O)O`, the EC50 in experiment [5] turned out to be 40 nM.

Regarding `Cc1c(Nc2nccc3cc(CN[C@H](C)CO)cnc23)cccc1-c1cccc(-c2nc3cc(CN4CCC(C(=O)O)CC4)cc(C#N)c3o2)c1C`, in [1], the IC50 was below 10 nM. For the compound `CCN(Cc1ccccc1)C(=O)N[C@@H](CC(N)=O)c1nc([C@@H](N)CO)no1`, the Activity in experiment [10] is given as 92%. In turn, `C[C@H](O)[C@H](NC(=O)N[C@@H](Cc1ccccc1)c1nc([C@@H](N)CO)no1)C(=O)O` gave an Activity in [10] of 92%. For `CCCCN(CCCC)CCOc1cccc(OC(=O)N(C)C)c1`, the inhibition in experiment [3] worked out at 41.9%.

Take `CC[C@H](C)[C@H](NC1CCC(=O)NCCCCC(C(=O)N[C@@H](CO)C(=O)NC(CCC(N)=O)C(=O)O)NC(=O)[C@H](CO)NC(=O)[C@H](CCSC)NC1=O)C(=O)O` (stereo partly specified): the Activity in [4] worked out at 76%. Take `CNCCOc1cccc(OC(=O)N(C)C)c1`: the inhibition in [3] turned out to be 18.5%. In experiment [1], `CC[C@H](C)[C@@H]1NC(=O)[C@H](CC(C)C)NC(=O)[C@H](Cc2ccccc2)NC(=O)CSC[C@@H](C(=O)NCC(N)=O)NC(=O)[C@H](CCCNC(=N)N)NC(=O)[C@H](Cc2ccccc2)NC(=O)[C@H](C(C)C)NC(=O)[C@H](CCCNC(=N)N)NC(=O)[C@H](CC(=O)O)NC(=O)[C@H](CCCNC(=N)N)NC(=O)[C@H]([C@@H](C)CC)NC(=O)[C@H](C(C)C)NC1=O` ({CH2CO}-FLIVIRDRVFRCG-NH2; thioether N-12) showed an EC50 of 0.72 nM. The compound `C[C@@H](O)[C@H](N)c1noc([C@H](Cc2ccc(O)cc2)NC(=O)N2CCC[C@H]2C(=O)O)n1` showed an Activity in experiment [10] of 99%. Consider `C[C@@H](O)[C@H](NC(=O)[C@H](CO)NC(CCC(=O)NCCCCNC(=O)C(Cc1ccccc1)NC(=O)C(N)CO)C(N)=O)C(=O)N[C@@H](CC(N)=O)C(=O)N[C@@H](CO)C(=O)O` (stereo partly specified), for which the Activity in experiment [4] was determined as 87%.

Consider `C[C@@H](O)[C@@H]1NC(=O)[C@H](CC(N)=O)NC(=O)C(CO)NNC(=O)C(CCC(N)=O)NC(=O)[C@H](Cc2ccccc2)NC(=O)[C@H](CO)NC(=O)[C@H](CCC(=O)O)NC(=O)[C@H](CO)NC1=O` (stereo partly specified) (cyclo(ESF[ξQ][X1]NTS)), for which the Activity in experiment [4] came to 76%. `Cc1c(-c2nc3c(o2)CN(C(=O)CN2CCC(O)CC2)C3)cccc1-c1cccc(-c2nc3cc(CN4CC[C@@](C)(C(=O)O)C4)cc(C#N)c3o2)c1C`: the IC50 in experiment [1] was below 10 nM. Still for that read-out and setting: in the case of `Cc1c(-c2nc3cc(CN4CC[C@@](C)(C(=O)O)C4)cc(C#N)c3o2)cccc1-c1cccc(-c2nc3c(s2)CN(C(=O)CN(C)C(C)C)C3)c1C` it was below 10 nM.

For H-FNWDYSLEELREKAKYK-OH, the Kd in [2] came to 3140 nM. For the compound `CC[C@H](C)[C@H](NC1CCC(=O)NCCCCC(C(=O)N[C@@H](CO)C(=O)N[C@@H](Cc2ccccc2)C(N)=O)NC(=O)[C@H](CO)NC(=O)[C@H]([C@@H](C)O)NC1=O)C(=O)O` (stereo partly specified), the Activity in [4] came out at 76%. Consider `N[C@@H](Cc1ccc(O)cc1)c1noc([C@@H]2CCCN2C(=O)N[C@@H](Cc2ccc(O)cc2)C(=O)O)n1`, for which the Activity in experiment [10] worked out at 91%. Consider `Cc1c(-c2ccc3c(c2)OCCO3)cccc1-c1nc2cc(CNCCO)cc(C)c2o1`, for which the IC50 in experiment [1] was below 10 nM. `COc1cc(NS(=O)(=O)c2ccc(N)cc2)ncn1`: the inhibition in experiment [3] was found to be 10.2%. Take `Cc1c(-c2ccc3c(c2)OCCO3)cccc1-c1nc2cc(CNCCO)c(OCC#N)cc2o1`: the IC50 in experiment [1] is below 10 nM. In the case of `C[C@H](O)[C@H](NC(=O)N[C@@H](CC(N)=O)C(=O)NNC(=O)[C@@H](N)CO)C(=O)O`, the Activity in the experiment on CT26 is 46%. The EC50 in [5] came out at 30 nM. `C[C@@H](O)[C@H](N)C(=O)NNC(=O)[C@H](CC(N)=O)NC(=O)N[C@@H](CO)C(=O)O`: the EC50 in experiment [5] was 27 nM. On to `CC[C@H](C)[C@H](NC(=O)[C@H](CC(N)=O)NC(=O)CNC(=O)[C@H](Cc1cnc[nH]1)NC(=O)[C@H](CCCNC(=N)N)NC(=O)C(Cc1ccc(O)cc1)NC(=O)[C@H](CC(=O)O)NC(=O)[C@H](CCCCN)NC(=O)[C@H](CCC(=O)O)NC(=O)[C@@H](N)[C@@H](C)O)C(=O)N[C@@H](CCCNC(=N)N)C(=O)N[C@@H](CCSC)C(=O)N[C@@H](CCCCN)C(=O)N[C@@H](CC(C)C)C(=O)N[C@@H](C)C(=O)N[C@@H](Cc1ccc(O)cc1)C(=O)N[C@@H](CC(=O)O)C(=O)N[C@@H](CC(C)C)C(=O)O` (stereo partly specified) (H-TEKD[ξY]RHGNIRMKLAYDL-OH), for which, in experiment [2], the Kd was found to be 3130 nM.
